Assay results: US20230272399A1, “INHIBITORS OF LINE1 AND USES THEREOF” (T-ONE THERAPEUTICS S.R.L., priority 2020, published 2023)
*1 amine or outer side, *2 acyl side, *3 side chain or, on linkers, in order; H or OH if unused. Where a SMILES comes first, the peptide text is derived from it. Bridges are numbered along the chain shown (N, C = ends). Roman numbers before positions name the chains, in order. [ ]: non-standard residue; d: D form. Actinocin(9to1) = Cc1c2oc3c(C)ccc(C(=O)[*:1])c3nc-2c(C(=O)[*:2])c(N)c1=O; NMeV = CN[C@H](C(=O)O)C(C)C; Sar = CNCC(=O)O

What was measured:
[1] = system: LINE1 RNAs; assay: Actinomycin D treatment of quiescent naïve CD4+ T-cells, LINE1 expression by qRT-PCR; assay type: cell-based, human; conditions: Actinomycin D 5 μg/mL, 16 h
Procedure: Quiescent naïve CD4^+ T-cells were treated for 16 h with Actinomycin D 5 μg/mL (Merck; cat. num. A9415) as reported in^68. TCR signaling pathway inhibition was performed using the following immunosuppressive drugs: Rapamycin (100 nM; Merck; cat. num. R8781) for mTORC1, Ciclosporin A (0,5 μg/mL; Merck; cat. num. C3662) for Calcineurin pathway, Dexamethasone (1 μM; Merck; cat. num. D4902) for NF-κB pathway. Quiescent naïve CD4^+ T-cells were pretreated for 2 hours with the overmentioned drugs, then stimulated with Dynabeads Human T-activator anti-CD3/anti-CD28 beads in Th1 medium, in the presence of the different inhibitors; T-cells were collected 2, 4, 8 h post activation. Otherwise, naïve CD4^+ T-cells activated and cultured in Th1 medium for 72 h were treated for 48 h with the drugs. Treated cells were controlled for their vitality and treatment efficacy was assessed.

[2] = molecular target: mTORC1 (Homo sapiens, UniProt P42345+P62942); assay: LINE1 expression in memory CD4+ T-cells from blood of patients treated with mTORC1 inhibitors; conditions: memory CD4+ T-cells from blood of kidney transplanted patients treated with Everolimus, versus healthy individuals
[3] = system: LINE1 RNAs; assay: LINE1 RNA FISH in naïve CD4+ T-cells treated with 3TC retrotranscriptase inhibitor; assay type: cell-based, human; conditions: versus vehicle (DMSO)
Procedure: Briefly, antisense biotinylated riboprobes for LINE1, AluY and HERVK were in vitro transcribed using MAXIscript T7 transcription kit (Invitrogen) and Biotin RNA labeling mix (Roche). 50-100 ng of antisense biotinylated riboprobes per experiment were used. 3% paraformaldehyde (PFA) fixed T-cells were washed with 0.05% Triton-X-100 in PBS, permeabilized with 0.5% Triton-X-100 in PBS and maintained in 20% glycerol/PBS.
To quantify mean fluorescence intensity of RNA signal in 3D reconstructed nuclei, images were analyzed with NIS-Elements Software (by Nikon). In the “General Analysis” a mask on DAPI signals was generated to identify single nuclei, and then a “3D measurement” of RNA signals in every nucleus was performed. To measure the colocalization of RNA and histone mark signals was used ImageJ Software to control the Pearson Correlation through the command “Colocalization Threshold” for every nucleus.

## Cc1c2oc3c(C)ccc(C(=O)N[C@@H]4C(=O)N[C@H](C(C)C)C(=O)N5CCC[C@H]5C(=O)N(C)CC(=O)N(C)[C@@H](C(C)C)C(=O)O[C@@H]4C)c3nc-2c(C(=O)N[C@@H]2C(=O)N[C@H](C(C)C)C(=O)N3CCC[C@H]3C(=O)N(C)CC(=O)N(C)[C@@H](C(C)C)C(=O)O[C@@H]2C)c(N)c1=O [actinomycin D, Actinomycin D] (I: T[dV]P[Sar][NMeV] / II: T[dV]P[Sar][NMeV]; ester I:1-I:C, II:1-II:C; linker I:N-II:N via Actinocin(9to1))
[1]
  LINE1 RNAs levels: moderately affect

## CO[C@H]1C[C@@H]2CC[C@@H](C)[C@@](O)(O2)C(=O)C(=O)N2CCCC[C@H]2C(=O)O[C@H]([C@H](C)C[C@@H]2CC[C@@H](OCCO)[C@H](OC)C2)CC(=O)[C@H](C)/C=C(\C)[C@@H](O)[C@@H](OC)C(=O)[C@H](C)C[C@H](C)/C=C/C=C/C=C/1C [Everolimus]
[2]
  LINE1 RNAs expression: re-express LINE1 RNAs

## Nc1ccn([C@@H]2CS[C@H](CO)O2)c(=O)n1 [3TC]
[3]
  staining of LINE1 RNAs (RNA-FISH): completely unchanged
